Assay results taken from the supplement of paper PMC10307832.

Legend:
Test in all cases: relative viability (nuclei count vs DMSO), 5 days (fraction); higher = more cells survive
COR-L23 = system: COR-L23
Method in brief: (§1)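 Medians of duplicate plates are given as relative viability. That measure is the nuclei count in treated wells divided by the count in vehicle wells. Counts were taken on 4× images of lung cancer cell lines in 1536-well plates, 5 days after pin-tool dosing the day after seeding with one drug alone or a fixed anchor-drug dose plus five library-drug doses (not always all listed) in √10 steps.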

ChaGo-K-1 = system: ChaGo-K-1
Method in brief: as §1

EMC-BAC-2 = system: EMC-BAC-2
Method in brief: as §1

EPLC-272H = system: EPLC-272H
Method in brief: as §1

H3255 = system: H3255
Method in brief: as §1

HCC-44 = system: HCC-44
Method in brief: as §1

HCC-827 = system: HCC-827
Method in brief: as §1

LCLC-103H = system: LCLC-103H
Method in brief: as §1

LU99A = system: LU99A
Method in brief: as §1

NCI-H1395 = system: NCI-H1395
Method in brief: as §1

NCI-H1563 = system: NCI-H1563
Method in brief: as §1

NCI-H1651 = system: NCI-H1651
Method in brief: as §1

NCI-H1793 = system: NCI-H1793
Method in brief: as §1

NCI-H1944 = system: NCI-H1944
Method in brief: as §1

NCI-H2023 = system: NCI-H2023
Method in brief: as §1

NCI-H2085 = system: NCI-H2085
Method in brief: as §1

NCI-H2087 = system: NCI-H2087
Method in brief: as §1

NCI-H2405 = system: NCI-H2405
Method in brief: as §1

NCI-H520 = system: NCI-H520
Method in brief: as §1

NCI-H650 = system: NCI-H650
Method in brief: as §1

NCI-H838 = system: NCI-H838
Method in brief: as §1

SK-MES-1 = system: SK-MES-1
Method in brief: as §1

`O=c1cc(-c2cccc3c2Sc2ccccc2S3)oc(N2CCOCC2)c1` + CCNC(=O)c1noc(-c2cc(C(C)C)c(O)cc2O)c1-c1ccc(CN2CCOCC2)cc1 [Luminespib] (partner 0.01 µM) showed a relative viability (COR-L23; first compound 0.08 µM) of 0.863, a relative viability (COR-L23; first compound 0.253 µM) of 0.854 and a relative viability (COR-L23; first compound 0.8 µM) of 0.837. It also gave a relative viability (COR-L23; first compound 2.53 µM) of 0.78, a relative viability (COR-L23; first compound 8 µM) of 0.703 and a relative viability (ChaGo-K-1; first compound 0.08 µM) of 0.533. The relative viability (ChaGo-K-1; first compound 0.253 µM) was 0.763, the relative viability (ChaGo-K-1; first compound 0.8 µM) was 0.658 and the relative viability (ChaGo-K-1; first compound 2.53 µM) was 0.67. The relative viability (ChaGo-K-1; first compound 8 µM) was 0.548, the relative viability (EMC-BAC-2; first compound 0.08 µM) was 1.16 and the relative viability (EMC-BAC-2; first compound 0.253 µM) was 1.31. For the same compound, the relative viability (EMC-BAC-2; first compound 0.8 µM) was 1.13, the relative viability (EMC-BAC-2; first compound 2.53 µM) was 1.18 and the relative viability (EMC-BAC-2; first compound 8 µM) was 1.27. It also gave a relative viability (EPLC-272H; first compound 0.08 µM) of 0.182, a relative viability (EPLC-272H; first compound 0.253 µM) of 0.405 and a relative viability (EPLC-272H; first compound 0.8 µM) of 0.431. For the same compound, the relative viability (EPLC-272H; first compound 2.53 µM) was 0.146, the relative viability (EPLC-272H; first compound 8 µM) was 0.292 and the relative viability (H3255; first compound 0.08 µM) was 0.758. The relative viability (H3255; first compound 0.253 µM) was 0.943, the relative viability (H3255; first compound 0.8 µM) was 0.84 and the relative viability (H3255; first compound 2.53 µM) was 0.884. It also gave a relative viability (H3255; first compound 8 µM) of 0.955, a relative viability (HCC-44; first compound 0.08 µM) of 1.17 and a relative viability (HCC-44; first compound 0.253 µM) of 0.971. The relative viability (HCC-44; first compound 2.53 µM) was 0.993, the relative viability (HCC-44; first compound 8 µM) was 1.04 and the relative viability (HCC-827; first compound 0.08 µM) was 0.582. It also gave a relative viability (HCC-827; first compound 0.253 µM) of 0.588, a relative viability (HCC-827; first compound 0.8 µM) of 0.656 and a relative viability (HCC-827; first compound 2.53 µM) of 0.588. The relative viability (HCC-827; first compound 8 µM) was 0.639, the relative viability (LCLC-103H; first compound 0.08 µM) was 0.878 and the relative viability (LCLC-103H; first compound 0.253 µM) was 1.17. It also gave a relative viability (LCLC-103H; first compound 0.8 µM) of 1.05, a relative viability (LCLC-103H; first compound 2.53 µM) of 0.959 and a relative viability (LCLC-103H; first compound 8 µM) of 0.792. The relative viability (LU99A; first compound 0.08 µM) was 0.211, the relative viability (LU99A; first compound 0.253 µM) was 0.219 and the relative viability (LU99A; first compound 0.8 µM) was 0.259. It also gave a relative viability (LU99A; first compound 2.53 µM) of 0.221, a relative viability (LU99A; first compound 8 µM) of 0.306 and a relative viability (NCI-H1395; first compound 0.08 µM) of 0.632. For the same compound, the relative viability (NCI-H1395; first compound 0.253 µM) was 0.712, the relative viability (NCI-H1395; first compound 0.8 µM) was 0.658 and the relative viability (NCI-H1395; first compound 2.53 µM) was 0.63. For the same compound, the relative viability (NCI-H1395; first compound 8 µM) was 0.661, the relative viability (NCI-H1563; first compound 0.08 µM) was 0.708 and the relative viability (NCI-H1563; first compound 0.253 µM) was 0.567. It also gave a relative viability (NCI-H1563; first compound 0.8 µM) of 0.491, a relative viability (NCI-H1563; first compound 2.53 µM) of 0.491 and a relative viability (NCI-H1563; first compound 8 µM) of 0.497. The relative viability (NCI-H1651; first compound 0.08 µM) was 0.81, the relative viability (NCI-H1651; first compound 0.253 µM) was 0.93 and the relative viability (NCI-H1651; first compound 0.8 µM) was 0.889. It also gave a relative viability (NCI-H1651; first compound 2.53 µM) of 0.807, a relative viability (NCI-H1651; first compound 8 µM) of 0.791 and a relative viability (NCI-H1793; first compound 0.08 µM) of 0.168. The relative viability (NCI-H1793; first compound 0.253 µM) was 0.299, the relative viability (NCI-H1793; first compound 0.8 µM) was 0.231 and the relative viability (NCI-H1793; first compound 2.53 µM) was 0.17. The relative viability (NCI-H1793; first compound 8 µM) was 0.153, the relative viability (NCI-H1944; first compound 0.08 µM) was 0.678 and the relative viability (NCI-H1944; first compound 0.253 µM) was 0.746. The relative viability (NCI-H1944; first compound 0.8 µM) was 0.72, the relative viability (NCI-H1944; first compound 2.53 µM) was 0.684 and the relative viability (NCI-H1944; first compound 8 µM) was 0.758. For the same compound, the relative viability (NCI-H2023; first compound 0.08 µM) was 0.58, the relative viability (NCI-H2023; first compound 0.253 µM) was 0.949 and the relative viability (NCI-H2023; first compound 0.8 µM) was 0.601. The relative viability (NCI-H2023; first compound 2.53 µM) was 0.856, the relative viability (NCI-H2023; first compound 8 µM) was 0.499 and the relative viability (NCI-H2085; first compound 0.08 µM) was 0.408. For the same compound, the relative viability (NCI-H2085; first compound 0.253 µM) was 0.526, the relative viability (NCI-H2085; first compound 0.8 µM) was 0.39 and the relative viability (NCI-H2085; first compound 2.53 µM) was 0.437. It also gave a relative viability (NCI-H2085; first compound 8 µM) of 0.354, a relative viability (NCI-H2087; first compound 0.08 µM) of 0.2 and a relative viability (NCI-H2087; first compound 0.253 µM) of 0.163. It also gave a relative viability (NCI-H2087; first compound 0.8 µM) of 0.155, a relative viability (NCI-H2087; first compound 2.53 µM) of 0.163 and a relative viability (NCI-H2087; first compound 8 µM) of 0.2. The relative viability (NCI-H2405; first compound 0.08 µM) was 0.522, the relative viability (NCI-H2405; first compound 0.253 µM) was 0.565 and the relative viability (NCI-H2405; first compound 0.8 µM) was 0.464. The relative viability (NCI-H2405; first compound 2.53 µM) was 0.568, the relative viability (NCI-H2405; first compound 8 µM) was 0.465 and the relative viability (NCI-H520; first compound 0.08 µM) was 0.223. For the same compound, the relative viability (NCI-H520; first compound 0.253 µM) was 0.231, the relative viability (NCI-H520; first compound 0.8 µM) was 0.215 and the relative viability (NCI-H520; first compound 2.53 µM) was 0.205. It also gave a relative viability (NCI-H520; first compound 8 µM) of 0.231, a relative viability (NCI-H650; first compound 0.08 µM) of 0.711 and a relative viability (NCI-H650; first compound 0.253 µM) of 0.756. It also gave a relative viability (NCI-H650; first compound 0.8 µM) of 0.873, a relative viability (NCI-H650; first compound 8 µM) of 0.813 and a relative viability (NCI-H838; first compound 0.08 µM) of 0.277. The relative viability (NCI-H838; first compound 0.253 µM) was 0.264, the relative viability (NCI-H838; first compound 0.8 µM) was 0.371 and the relative viability (NCI-H838; first compound 2.53 µM) was 0.313. For the same compound, the relative viability (NCI-H838; first compound 8 µM) was 0.23, the relative viability (SK-MES-1; first compound 0.08 µM) was 0.775 and the relative viability (SK-MES-1; first compound 0.253 µM) was 0.748. It also gave a relative viability (SK-MES-1; first compound 0.8 µM) of 0.734, a relative viability (SK-MES-1; first compound 2.53 µM) of 0.522 and a relative viability (SK-MES-1; first compound 8 µM) of 0.505.
